For one series, the target named is mouse mu opioid receptor (Mus musculus (Mouse), UniProt P42866). Kind of series: Calcium mobilization assay in mMOR-CHO cells. The format is cell-based. As to the method: Calcium mobilization assay results in mMOR-CHO cells. The pharmacological profiles of the three newly prepared MOR bivalent ligands were further characterized for their effects on MOR-dependent intracellular Ca^2+ signaling in an mMOR-CHO cell line that was transfected with chimeric Gqi5 protein as previously described.
mouse mu opioid receptor, sequence (P42866 whole entry, looked up): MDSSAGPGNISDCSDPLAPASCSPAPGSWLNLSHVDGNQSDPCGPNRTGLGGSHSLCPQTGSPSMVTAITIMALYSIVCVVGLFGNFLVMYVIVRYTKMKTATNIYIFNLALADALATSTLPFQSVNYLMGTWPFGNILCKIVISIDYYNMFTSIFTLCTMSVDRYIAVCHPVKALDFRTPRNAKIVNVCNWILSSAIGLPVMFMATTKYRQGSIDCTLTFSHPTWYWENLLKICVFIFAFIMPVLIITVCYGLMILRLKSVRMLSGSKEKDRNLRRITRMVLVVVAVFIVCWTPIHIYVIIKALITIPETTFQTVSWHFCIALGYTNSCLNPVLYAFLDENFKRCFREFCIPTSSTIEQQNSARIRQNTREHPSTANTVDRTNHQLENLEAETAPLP
A CHO cell line stably expressing the mouse mu opioid receptor (mMOR-CHO) was used for this assay. The cells were transfected with Gαqi5 for 4 h and then plated (10,000 cells/well) to black 96-well plates with clear bottoms (Greiner Bio-One). After 24 h of incubation, the culture medium was removed, and the cells were washed with assay buffer (50 mL of HBSS, 1 mL of HEPES, 250 μL of probenecid, 50 μL of 1 mM CaCl2, and 50 μL of 1 mM MgCl2). The tested compounds were dissolved in DMSO as a stock solution for the assay (1 M). For agonist assays, cells were then incubated with 50 μL/well loading buffer (6 mL of assay buffer, 24 μL of Fluo4-AM solution (Invitrogen), and 12 μL of probenecid solution) for 60 min. Following incubation, different concentrations of the tested compounds were added by a FlexStation3 microplate reader (Molecular Devices) and read at ex494/em516. Each concentration was run in triplicate. For antagonism studies, the cells were incubated with the same loading buffer as the agonist assay for 60 min. Then, different concentrations of the tested compounds (20 μL/well) were manually added to each well followed by another 15 min of incubation. […] Each concentration was run in triplicate. The corresponding IC50 value of each compound was calculated by non-linear regression using GraphPad Prism 8.0.1 (GraphPad Software, San Diego, CA).

In series [1] the test system is HIV-1BaL. Kind of series: HIV-1BaL infection assay in MOR-CCR5 co-expressed TZM-b1 cells. The format is cell-based. To be noted: read-out: Inhibition of HIV-1BaL infection EC50.
Protocol: CCR5-expressing TZM-b1 cells co-express an HIV-1 long-terminal repeat (LTR)-firefly luciferase reporter that can be activated by Tat (trans-activator of transcription) in cells expressing HIV. […] To initially determine whether the co-expression of MOR affected HIV-1 entry/expression, OPRM1- or control plasmid-transfected TZM-b1 cells were exposed to varying concentrations of HIV-1BaL and HIV-1 entry was calculated based on LTR-driven luciferase activity.
HIV-1BaL.01 was kindly donated and expanded in Phytohemagglutinin (PHA)-activated Peripheral Blood Mononuclear Cells (PBMCs). The amount of viral particles was determined by commercial ELISA for p24 capsid antigen (Zeptometrix) and aliquots were stored at −80° C. The TZM-b1, a cell line contained integrated copies of luciferase under control of the HIV-1 long-terminal repeat (LTR), were kindly donated.
Cells were transfected with plasmid containing GFP-tagged human opioid receptor mu 1 gene (OPRM1; Origene) or with the original empty vector also containing GFP (control plasmid; Origene) and selected for 2 weeks with 2 mg/ml G418 (Invivogen) in DMEM (Hyclone) supplemented with 1×MEM Non-essential amino acids (Gibco), 10% heat-inactivated FBS (Hyclone) and 100 U Penicillin-0.1 mg/ml Streptomycin (Sigma). Then, GFP+ cells were sorted out twice by flow cytometry (BDFACSAria model, Becton-Dickinson) and maintained in the conditions mentioned above with 800 μg/ml G418. For the infection, cells were detached from 25 cm2 flasks with 0.25% Trypsin (Sigma), washed by centrifugation (400 g—10 mins) and viable cells determined by Trypan blue (Sigma) exclusion. […] Luciferase activity was evaluated following the addition of 100 μL/well of 2× luciferase substrate containing lysis buffer (BRIGHT-GLO™ Luciferase Substrate, Promega) after 2-3 days of infection.
Luminescence, reported as relative luminescence units (RLU), was evaluated in PHERASTAR® FS plate reader and results expressed as percentage of inhibition relative to vehicle-treated, infected cells (100% infection).
Series [2] concerns HIV-1BaL. Kind of series: Anti-HIV-1BaL activity (reverse transcriptase activity) in GHOST CCR5 cells. Conditions: read-out: Inhibition of HIV-1BaL EC50, RT activity, triplicate.
Protocol: This assay was run in GHOST-CCR5 cells using the CCR5-tropic viral strain HIV-1BaL.
100 μL of GHOST CCR5 cells at a density of 1×10^4 cells/well in 10% complete DMEM (10% FBS with 1% L-glutamine and 1% Penicillin/Streptomycin) media were plated in a 96-well flat bottom plate and incubated for 24 h at 37° C./5% CO2. Following the incubation, 100 μL of each compound at 6 concentrations were added in triplicate to both efficacy and toxicity plates followed by 100 μL of HIV-1BaL at a pre-determined titer to the plates being evaluated for efficacy and 50 μL of complete DMEM to the plates being evaluated for cytotoxicity. The cultures were incubated for 6 days at 37° C./5% CO2. Following the incubation, 50 μL of cell culture supernatant was removed from the wells of the efficacy plates for subsequent evaluation of virus content by reverse transcriptase activity assay. The toxicity plates being evaluated for cytotoxicity were stained with XTT.
RT activity (EC50 values) was measured using standard radioactivity incorporation polymerization assay. 1 μL of titrated thymidine triphosphate (TTP) at 1 Ci/mL was used per enzyme reaction. Poly rA and oligo dT were prepared at concentrations of 0.5 mg/mL and 1.7 Units/mL, respectively, from a stock solution which was kept at −20° C. The RT reaction buffer was prepared fresh and consists of 125 μL of 1M EGTA, 125 μL of dH2O, 125 μL of 20% Triton X-100, 50 μL of 1M Tris (pH 7.4), 50 μL of 1M DTT, and 40 μL of 1 M MgCl2. For each reaction, 1 μL of TTP, 4 μL of dH2O, 2.5 μL of rAdT and 2.5 μL of reaction buffer were mixed. 10 μL of this reaction mixture was placed in a round bottom microtiter plate with 15 μL of virus containing supernatant. The plate was incubated at 37° C. in a humidified incubator for 60-90 min. […] The dried filtermat was placed in a plastic sleeve and 4 mL of Opti-Fluor O (Perkin Elmer, catalog #1205-440) scintillation fluid was added to each sleeve. […] TC50 values for the tested compounds were derived by measuring the reduction of the tetrazolium dye XTT (2,3-bis(2-methoxy-4-nitro-5-sulfophenyl)-5-[(phenylamino)carbonyl]-2H-tetrazolium hydroxide). XTT in metabolically active cells is metabolized by the mitochondrial enzyme NADPH oxidase to a soluble formazan product. XTT solution was prepared as a stock of 1 mg/mL in RPMI-1640 without additives. Phenazine methosulfate (PMS) solution was prepared at 0.15 mg/mL in DPBS and stored in the dark at −20° C. XTT/PMS stock was prepared immediately before use by adding 40 μL of PMS per mL of XTT solution. […] The plates were sealed and inverted several times to mix the soluble formazan product and the plate was read at 450 nm (650 nm reference wavelength) with a Molecular Devices SPECTRAMAX® Plus 384 96 well format spectrophotometer.
The subject of series [3] is HIV-1BaL Env-pseudotyped Luc-expressing virus. Kind of series: HIV-1 infection assay in PHA-stimulated PBMC cells. To be noted: PHA-stimulated PBMCs, 100 nM. The format is cell-based. As to the method:
Peripheral blood mononuclear cells (PBMCs) include large numbers of CCR5-expressing leukocytes and are susceptible to infection by R5-tropic HIV-1 strains.
In a 24-well plate, PHA-stimulated PBMC cells from healthy donors were infected by incubation with the HIV-1BaL.01 env-pseudotyped Luc virus. A concentration of HIV-1 p24 50 pg/106 cells was used, and uninfected cells served as a negative control. […] After approximately 18-20 h, the supernatant was removed and stored at −80° C., cells were rinsed twice with PBS and lysed. The lysate was subsequently tested for the relative Tat protein expression by using a luciferase assay system (Promega). Luciferase activity was measured using a PHERASTAR® FS plate reader (BMG Labtech).

For the next series, the target named is mouse MOR (Mus musculus (Mouse), UniProt P42866). Kind of series: In vitro MOR radioligand binding assay. Conditions: [3H]naloxone radioligand; mMOR-CHO; mean ± SEM; read-out: MOR Radioligand Binding Affinity Ki.
mouse MOR, sequence (P42866 whole entry, looked up): as above
For series [4], the target named is Rhesus macaque chemokine CCR5 receptors (Macaca mulatta (Rhesus macaque), UniProt P61813). Kind of series: In vitro CCR5 radioligand binding assay. Conditions: [125I]MIP-1α radioligand; Chem-1 cells; Cheng-Prusoff; mean ± SEM; read-out: CCR5 Radioligand Binding Affinity Ki. As to the method: In vitro CCR5 radioligand binding studies. To verify the binding affinity of the bivalent ligands to the CCR5, the competitive radioligand binding assay was conducted in recombinant rhesus macaque CCR5-expressing Chem-1 cells, and macrophage inflammatory protein 1 beta (MIP-1β) was used as a control.
The CCR5 competitive radioligand binding assay was conducted following previously reported studies.74, 75 Rhesus macaque chemokine CCR5 receptors expressed in Chem-1 cells are assayed in modified HEPES buffer (50 mM HEPES, 1 mM CaCl2, 5 mM MgCl2, 0.2% BSA, pH 7.4). 3 μg of membrane protein was incubated with 0.10 nM [^125I]MIP-1α in the presence of six concentrations of tested compounds (10 μM, 1 μM, 0.1 μM, 10 nM, 1 nM, and 0.1 nM) for 90 min at 25° C. Non-specific binding is estimated in the presence of 0.1 μM MIP-1β.

Where only a bound is given, the exact number is not on record here.

Protocol for mouse MOR: In vitro MOR radioligand binding studies. All bivalent ligands were first tested for their binding affinity to the MOR. The competitive radioligand binding assay was conducted using monoclonal mouse MOR expressed in CHO cell lines (mMOR-CHO).
In vitro MOR radioligand binding assay The competition binding assay was conducted using monoclonal mouse MOR expressed in Chinese hamster ovary (CHO) cell lines. In this assay, 30 μg of membrane protein was incubated with the radioligand [^3H] naloxone in the presence of different concentrations of tested compounds in TME buffer (50 mM Tris, 3 mM MgCl2, and 0.2 mM EGTA, pH 7.4) for 1.5 h at 30° C. The bound radioligand was separated by filtration using a Brandel harvester. […] The IC50 values were determined and converted to Ki values using the Cheng-Prusoff equation: Ki=IC50/[1+([L*]/KD)], where [L*] is the concentration of the radioligand and KD is the KD of the radioligand was determined.73

`CC(C)c1nnc(CCNC(=O)COCC(=O)NCCCCCCCNC(=O)COCC(=O)NC2CC[C@@]3(O)[C@H]4Cc5ccc(O)c6c5[C@@]3(CCN4CC3CC3)[C@H]2O6)n1C1CC2CCC(C1)N2CC[C@H](NC(=O)C1CCC(F)(F)CC1)c1ccccc1` (stereo partly shown) [VZMC013]: the “MOR agonism in Ca2+ mobilization” value on mouse mu opioid receptor (agonist mode, varying concentrations) is “No agonism was observed”. The IC50 at mouse mu opioid receptor (read-out: Inhibition of DAMGO Induced Ca2+ Mobilization IC50, mMOR-CHO transfected with Gqi5, DAMGO 500 nM, mean ± SEM) is 50 ± 2.45 nM. For the same compound, the EC50 was determined as 247 nM in the series with HIV-1BaL [1] (OPRM1 transfected TZM-b1 cells, morphine 100 μM added); 368 nM in the series on HIV-1BaL [1] (OPRM1 transfected TZM-b1 cells, without morphine); 610 nM with HIV-1BaL [1] (control plasmid transfected TZM-b1 cells); 93 nM with HIV-1BaL [2]. Also, in the series with GHOST CCR5 cells (GHOST CCR5 cells, XTT, triplicate), the “Cytotoxicity TC50” value was more than 100000 nM. The compound also displayed a cell viability in the series on GHOST CCR5 cells (any concentration ≤100 μM, untreated cells = 100%) of approximately 100%. For the same compound, the results for the “decrease in HIV expression” value in series [3] (co-exposed to DAMGO 10 nM) and in series [3] (co-exposed to morphine 10 nM) were 69% and 55%, respectively. In addition, the “reduction in luminescence (viral entry)” value in series [3] (no opioid) was 22%. The Ki at mouse MOR came out at 6.05 nM; in series [4], 3.29 nM.

One may read the IC50 as the midpoint of a concentration-inhibition curve. What is called EC50 is the concentration that produces a half-maximal response. Broadly, the cell viability is the share of living cells, or the viability signal relative to a control. For orientation: Ki means a dissociation constant, usually derived from enzyme kinetics or from competition with a known ligand.
